One compound from patent US20240366606A1, “MRGPRX2 ANTAGONISTS AND USES THEREOF” (The Regents of the University of California, priority 2021, published 2024) can be followed below.

Holding throughout (type): cell-based
For test [1], the target named is MRGPRX4 (Homo sapiens (Human), UniProt Q96LA9). In words: MRGPRX4 agonist activity (FLIPR Ca2+ assay, concentration-response). The method, then:
FLIPR Ca2+ assay. Tetracycline inducible MRGPRX2 or MRGPRX4 stable cells [Flp-In™ T-REx™-293 cell which is derived from HEK 293 cells (ATCC, CRL 1573)] were maintained in DMEM containing 10% (v/v) FBS, 100 units ml^−1 penicillin G, 100 μg ml^−1 streptomycin, 100 μg ml^−1 hygromycin B, and 15 μg ml^−1 blasticidin ^16. NK1 stably expressing cell were maintained in DMEM containing 10% (v/v) FBS, 100 units ml^−1 penicillin G and 100 μg ml^−1 streptomycin. On the day of assay, cells were plated into Poly-L-Lysine (PLL) coated 384-well black clear bottom cell culture plates with DMEM buffer, which is composed of 1% (v/v) dialyzed FBS, 100 units ml^−1 penicillin G, 100 μg ml^−1 streptomycin with 1 μg ml^−1 tetracycline at density of 20,000 cells in 40 μl per well for overnight. For NK1 stable cells, the same media used for MRGPRX2 or MRGPRX4 cells except the tetracycline were used. […] Once loaded in FLIPR (Molecular Devices), basal fluorescence was measured for 10 s, then 10 μl of test compounds were added followed by continued fluorescence measurement for an additional 120 s. […] Data were normalized to % reference compound stimulation and analyzed using nonlinear regression “log(agonist) vs. response” in GraphPad Prism 9.0.

Test [2] has as its target Kir6.2/SUR1 potassium channel (Homo sapiens (Human), UniProt Q09428+Q14654). The test can be described thus: Electrophysiology of Kir6.2/SUR1 in HEK293 cells. To be noted: compared to nateglinide. How it is done: Electrophysiology. HEK293 cells were cultured in DMEM with 4.5 g L-^1 glucose, L-glutamine, and sodium pyruvate (Mediatech) containing 10% (v/v) FBS (Axenia BioLogix) and 1% (v/v) penicillin-streptomycin, at 37° C. and with 5% CO2. Cells were lifted with trypsin-EDTA (Life Technologies) and passaged to 6-well plates (Warner Instruments) 3-4 d before recording. Transient transfection was performed with Lipofectamine 2000 (Thermo Fisher Scientific) 2 days before recording. The plasmids of human Kir6.2 and SUR1 were the gift from Dr. Show-Ling Shyng (Oregon Health and Science University), and we fused mCherry fluorescent protein to the C-terminus of Kir6.2. The vector ratio for co-transfection of Kir6.2 to SUR1 was 1:10. Before recording, cells were lifted with trypsin-EDTA, kept in modified Tyrode's saline (140 mM NaCl, 5 mM KCl, 10 mM HEPES, 2 mM CaCl2), 1 mM MgCl2, 10 mM glucose, pH 7.2 ˜ 7.3 with HCl), and were used within 8 hours. For recording, an aliquot of cells was transferred to a recording chamber on a Nikon-TE2000 Inverted Scope (Nikon Instruments), and transfection was confirmed with fluorescent microscopy. The pipette solution contained: 145 mM KCl, 1 mM MgCl2, 5 mM EGTA, 2 mM CaCl2), 20 mM HEPES, 0.3 mM K2-ATP and 0.3 mM K2-ADP. Patch borosilicate pipettes (Sutter Instrument) were pulled from a Sutter P-97 puller with resistances of 2-3 MΩ. […]

The subject of test [3] is 320 GPCRs. In words: PRESTO-Tango GPCRome screening. As to conditions: 3 μM. The method, then: GPCRome Screening. Screening of compounds against the PRESTO-Tango GPCRome was accomplished using previously described methods with several modifications (63). First, HTLA cells were plated in white 384-well clear bottom plates (Greiner) in DMEM (Sigma) with 1% (v/v) dialyzed FBS and 10 U per mL penicillin-streptomycin (Gibco). After 24 h, the cells were transfected using PEI (Sigma) with an in-plate adapted method (64). Briefly, 17 ng per well PRESTO-Tango GPCR DNAs were resuspended in OptiMEM (Gibco) and hybridized with PEI prior to dilution and distribution into 384-well plates and subsequent addition to cells. After overnight incubation, MS47134 at 5× final concentration (3 μM) diluted in DMEM with 1% (v/v) dialyzed FBS were added to cells without replacement of the medium for 18-20 h. On the day of assay, medium and drug solution were dumped and loaded with 20 ul per well of Bright-Glo reagent (Promega). Plates were incubated for 20 min in the dark and the luminescence was counted for cells using SpectraMax Luminescence reader. Dopamine receptor D2 serves as an assay control with 0.1 mM Quinpirole. Data were analyzed using GraphPad Prism 9.0.

Test [4] has as its target MRGPRX4 (Homo sapiens, UniProt Q96LA9, L83S). In words: Mutagenesis of MRGPRX4, agonist-stimulated Gq activation. The method, then: (§1) Bioluminescence resonance energy transfer assay 2 (BRET2). To measure the receptor mediated G protein activation, HEK293T cells were plating either in six-well dishes containing 350-400 k cells per well, or 10-cm dishes at approximately 2 million per dish 20-24 h prior to transfection. The cells were then transfected with a 1:1:1:1 ratio of the receptor:GurLuc8:Gβ:GγGFP DNA. Transit 2020 (Mirus biosciences) was used to complex the DNA at a ratio of 3 μL Transit/μg DNA, in OptiMEM (GIBCO) at a concentration of 10 ng DNA per μL OptiMEM. After 24 h, the cells were plated in poly-L-lysine coated 96-well white clear bottom cell culture plates in plating media (DMEM+1% dialyzed FBS) at a density of 40-50,000 cells in 200 μl per well and incubated overnight. The next day, the media was carefully aspirated and cells were washed once with 60 μl of drug buffer (1×HBSS, 20 mM HEPES, 0.1% (w/v) BSA, pH 7.4), then 60 μl drug buffer containing coelenterazine 400a (nanolight technology) at 5 μM final concentration was added to each well and incubate for 5 min. Cells were then treated with 30 μl of 3× designated drug for an additional 5 minutes. After drug incubation, plates were read in an LB940 Mithras plate reader (Berthold Technologies) with a 395 nm (RLuc8-coelenterazine 400a) and 510 nm (GFP2) emission filters, at 1 s integration times. Each plate was read four times, and measurements from the fourth read were used in all analyses. BRET ratio was computed as the ratio of the GFP2 emission to rLuc8 emission. Data were normalized to % WT stimulation with indicated reference agonist and analyzed using nonlinear regression “log(agonist) vs. response” in GraphPad Prism 9.0. Log(agonist) vs normalized response—variable slope was used for (R)-ZINC-3573 pocket mutations (D184 Å, E164 Å, W243 Å, F244 Å, L247 Å, and W248 Å).

Test [5] addresses MRGPRX4 (Homo sapiens, UniProt Q96LA9, Y130A). Described as above. The method, then: as §1

Molecules are shown by their SMILES.

Chain of MRGPRX4 (Homo sapiens (Human), UniProt Q96LA9) (Q96LA9 whole entry): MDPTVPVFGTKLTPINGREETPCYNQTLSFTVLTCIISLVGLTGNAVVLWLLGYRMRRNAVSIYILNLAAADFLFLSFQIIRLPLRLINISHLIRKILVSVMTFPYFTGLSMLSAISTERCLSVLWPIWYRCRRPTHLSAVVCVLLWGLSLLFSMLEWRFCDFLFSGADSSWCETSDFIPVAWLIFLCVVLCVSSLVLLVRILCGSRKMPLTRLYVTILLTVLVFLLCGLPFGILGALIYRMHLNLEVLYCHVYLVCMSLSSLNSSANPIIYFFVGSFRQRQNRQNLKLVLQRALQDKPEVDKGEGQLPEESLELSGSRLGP
Chain of Kir6.2/SUR1 potassium channel (Q09428 whole entry, the tested form may be a part): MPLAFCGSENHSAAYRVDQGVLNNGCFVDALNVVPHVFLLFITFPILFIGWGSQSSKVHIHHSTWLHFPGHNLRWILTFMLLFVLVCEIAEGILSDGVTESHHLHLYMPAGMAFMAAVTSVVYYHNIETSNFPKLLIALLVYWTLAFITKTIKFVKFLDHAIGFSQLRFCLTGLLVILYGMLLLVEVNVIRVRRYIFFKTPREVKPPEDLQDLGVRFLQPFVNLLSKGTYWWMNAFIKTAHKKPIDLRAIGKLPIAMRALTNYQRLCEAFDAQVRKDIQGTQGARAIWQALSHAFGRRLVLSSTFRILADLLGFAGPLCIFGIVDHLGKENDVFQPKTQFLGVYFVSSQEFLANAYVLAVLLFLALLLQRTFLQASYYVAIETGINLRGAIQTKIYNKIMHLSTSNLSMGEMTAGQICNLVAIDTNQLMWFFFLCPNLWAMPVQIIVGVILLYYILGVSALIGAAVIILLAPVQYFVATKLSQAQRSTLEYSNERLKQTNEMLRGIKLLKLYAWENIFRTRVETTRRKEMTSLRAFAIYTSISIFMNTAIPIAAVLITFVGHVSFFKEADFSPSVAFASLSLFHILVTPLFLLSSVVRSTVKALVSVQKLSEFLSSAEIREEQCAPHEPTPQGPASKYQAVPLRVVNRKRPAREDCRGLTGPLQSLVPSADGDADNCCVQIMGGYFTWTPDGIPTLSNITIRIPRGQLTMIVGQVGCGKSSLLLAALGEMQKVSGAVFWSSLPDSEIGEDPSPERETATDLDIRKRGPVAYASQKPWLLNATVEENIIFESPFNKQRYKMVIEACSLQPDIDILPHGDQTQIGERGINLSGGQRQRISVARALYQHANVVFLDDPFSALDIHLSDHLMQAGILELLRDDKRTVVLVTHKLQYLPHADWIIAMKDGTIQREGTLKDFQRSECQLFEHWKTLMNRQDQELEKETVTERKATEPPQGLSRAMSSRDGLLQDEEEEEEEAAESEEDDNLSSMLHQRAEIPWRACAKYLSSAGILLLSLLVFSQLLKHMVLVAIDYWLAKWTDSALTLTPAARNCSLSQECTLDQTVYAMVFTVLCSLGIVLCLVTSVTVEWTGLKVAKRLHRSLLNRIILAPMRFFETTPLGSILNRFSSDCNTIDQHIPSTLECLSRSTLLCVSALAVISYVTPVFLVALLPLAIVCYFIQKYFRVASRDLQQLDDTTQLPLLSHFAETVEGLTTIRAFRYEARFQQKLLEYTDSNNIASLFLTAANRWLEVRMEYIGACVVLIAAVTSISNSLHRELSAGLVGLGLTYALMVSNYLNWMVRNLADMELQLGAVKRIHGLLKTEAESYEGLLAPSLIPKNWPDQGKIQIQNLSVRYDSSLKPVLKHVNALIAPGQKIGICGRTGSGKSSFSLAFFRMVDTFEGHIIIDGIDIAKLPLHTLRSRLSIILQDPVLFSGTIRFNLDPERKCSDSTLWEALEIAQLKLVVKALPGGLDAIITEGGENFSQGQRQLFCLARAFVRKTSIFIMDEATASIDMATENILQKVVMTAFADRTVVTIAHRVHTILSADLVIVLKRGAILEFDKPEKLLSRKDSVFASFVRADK
Chain of Kir6.2/SUR1 potassium channel (Q14654 whole entry, the tested form may be a part): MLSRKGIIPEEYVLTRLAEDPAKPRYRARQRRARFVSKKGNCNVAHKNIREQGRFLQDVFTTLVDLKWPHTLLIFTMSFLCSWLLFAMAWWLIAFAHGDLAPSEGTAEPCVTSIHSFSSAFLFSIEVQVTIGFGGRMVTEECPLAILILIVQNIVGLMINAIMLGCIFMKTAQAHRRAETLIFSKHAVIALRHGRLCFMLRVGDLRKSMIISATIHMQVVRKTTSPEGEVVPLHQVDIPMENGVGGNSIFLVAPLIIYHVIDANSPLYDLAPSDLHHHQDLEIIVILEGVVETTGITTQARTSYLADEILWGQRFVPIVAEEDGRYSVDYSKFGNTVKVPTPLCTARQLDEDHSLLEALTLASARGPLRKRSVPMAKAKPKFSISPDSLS

Usually EC50 stands for the midpoint of the concentration-response curve. In the case of `C[C@]12CC3CC(C(=O)N[C@H](Cc4ccccc4)C(=O)O)(C1)C[C@@](C)(C3)C2` [MS47134], a half-maximal response in test [1] (EC50) required 0.15 µM. Moreover, in test [2], the “improved selectivity for MRGPRX4 over the Kir6.2/SUR1 potassium channel” value came out at 47 fold. Further, the “off-target profiling at 320 GPCRs” value in test [3] is “activity only at MRGPRX4 and MRGPRX1”. In test [4], the “effect of L83S mutation on potency” value was “greatly attenuated the potency”. For the same compound, the “effect of Y130(ICL2)A mutation on potency of Gq activation” value in test [5] is on record as “reduced the potency”.
